Test results from PMC12469358, “Synthesis of novel phenoxyacetohydrazide compounds and evaluation therapeutic potential exhibit as anti-inflammatory and anti-angiogenic” (PLOS One, 2025).
Converted amounts (≈) assume the structure as drawn. “Also recorded” adds a separate entry of the source. Like-named read-outs stand apart in the source and are kept apart here.

How the values were obtained:
[1] = tested on: human red blood cell (HRBC) membrane; assay: Human red blood cell (HRBC) membrane stabilization assay; assay type: cell-based; conditions: for IC50: Homo sapiens, Erythrocyte
Procedure: The human red blood cell (HRBC) membrane stabilization method was employed to evaluate the anti-inflammatory activity of the compounds, as previously described. For test the in vitro anti-inflammatory activity of synthesized compounds (6e-h), blood samples were collected from healthy volunteers who had not taken NSAIDs for 14 days. The blood was mixed with an equal volume of sterilized Alsever’s solution, centrifuged at 3000 rpm, and the packed cells were washed with isotonic saline (0.9% w/v NaCl). A 10% cell suspension was then prepared using isotonic saline. The test compounds were dissolved in DMSO to prepare solutions at concentrations of 50, 100, 150, 200, and 250 μg/ml. For each concentration, a mixture containing 1 ml of phosphate buffer, 2 ml of hypotonic saline, and 0.5 ml of the HRBC suspension was prepared. The samples were incubated at 37°C for 30 minutes and centrifuged at 3000 rpm for 20 minutes. The hemoglobin content in the supernatant was determined spectrophotometrically at 560 nm. Indomethacin at the same concentrations (50–250 μg/ml) was used as the reference standard, and a control sample was prepared without the test compounds. The percentage hemolysis was calculated by considering the hemolysis in the control group as 100%. The percentage of HRBC membrane stabilization or protection was determined using the following formula:
percent protection=100−((OD of drug treated sample/OD of control) ×100).

[2] = tested on: rVEGF165-induced angiogenesis in chick chorioallantoic membrane (CAM); assay: In vivo chorioallantoic membrane (CAM) assay; conditions: for H&E staining: neovascular structures and inflammatory infiltration: Fig 23 legend, H&E staining of in vivo CAM
Procedure: The in vivo CAM assay was performed according to the standard protocol. All the eggs were wiped with 75% alcohol prior to incubation. Then the fertilized eggs were incubated at 37°C with 60% relative humidity. On the 11th day of incubation, all the eggs divided into three treatment groups contain minimum 6 eggs as mentioned below.
• Group I – Normal [PBS (Phosphate buffer saline) (10 mM Sodium phosphate mono basic+ 1.8 mM Sodium phosphate dibasic+140 mM sodium chloride, pH 7.4) alone] • Group II – Control [1µg of rVEGF165 alone] • Group III – 5 µg of 6e + 1 µg of rVEGF165.
A rectangular window was made in the egg shell and Whatman filter paper (3 mm diameter) containing with or without compound 6e (5 µg) was placed on the CAM and the window were sealed using sterile vegetable wrap. Windows were opened after 48h, i.e., on 13th day of incubation, observed by two independent observers and measured for change in the Micro Vessel Density (MVD) in the area beneath the cover slip and photographed using Sony steady shot DSC-W610 camera.

[3] = tested on: rVEGF165-induced angiogenesis in CAM explants; assay: Ex vivo CAM assay; assay type: in vivo, chick
[4] = tested on: alkali burn-induced corneal neovascularization (CNV); assay: Alkali burn-induced corneal neovascularization; assay type: in vivo; conditions: alkali-burnt cornea
Procedure: Corneal neovascularization (CNV) was induced through alkali injury following a standard protocol with minor modifications. Swiss albino rats were first examined to ensure the absence of ophthalmic diseases before the alkali burn procedure. The animals were divided into three groups, each comprising six animals (n = 6 per group):
• Group I: Normal, treated with phosphate-buffered saline (PBS). • Group II: Control group, treated with 1 µg of recombinant VEGF (rVEGF). • Group III: Treated group, receiving rVEGF165 ([…]) and compound 6e (5 µg/ml).
An alkali burn was induced in the right eye of animals in Groups II and III after administering general anesthesia via intraperitoneal injection of ketamine (1 ml/kg) and chlorpromazine (1 ml/kg). A 3-mm diameter piece of Whatman filter paper soaked in […] of 1 mol/L NaOH was applied to the center of the cornea for 30 seconds, followed by irrigation of the treated cornea with 60 ml of normal saline.
Group II animals were subsequently treated with 1 µg of rVEGF applied to the right eye. The extent of CNV was quantified through photographic documentation 48 hours after the alkali burn and rVEGF treatment. […] The inhibitory effect of compound 6e on neovascularization was evaluated through photographic documentation 24 hours after treatment with compound 6e.

[5] = tested on: carrageenan-induced paw edema; assay: Carrageenan-induced paw edema; assay type: in vivo; conditions: rat, 6e 25 mg/kg, 5 h after carrageenan injection
Text: Female Swiss albino rats were selected for the study to evaluate the anti-inflammatory effects of compound 6e against carrageenan-induced paw edema. The animals were divided randomly into four groups, with each group consisting of six experimental animals (n = 6): • Group 1: Normal animals (untreated). • Group 2: Control group (saline-treated). • Group 3: Positive control group (indomethacin-treated). • Group 4: Animals treated with compound 6e. Prior to the experiment, animals in Group 2 were administered saline (5 mL/kg), animals in Group 3 received the positive control indomethacin (10 mg/kg), and animals in Group 4 were treated with compound 6e (25 mg/kg). All animals were left undisturbed in their respective cages for 2 hours.

[6] = tested on: tissue myeloperoxidase (MPO) activity in carrageenan-treated paws; assay: Tissue myeloperoxidase (MPO) activity assay; assay type: in vivo; conditions: rat, 6e 25 mg/kg, 4 hours after carrageenan
Procedure: Rats were treated either with or without positive control (indomethacin at 10 mg/kg body weight) or compound 6e (25 mg/kg body weight) 2 hours prior to the injection of carrageenan into the right hind paw. The activity of tissue myeloperoxidase (MPO) was assessed 4 hours post-carrageenan injection. Tissue samples were collected and placed in 0.75 ml of 80 mM phosphate-buffered saline (PBS, pH 5.4) containing 0.5% hexadecyltrimethylammonium bromide (HTAB). The samples were homogenized for 45 seconds at 0°C using a homogenizer. The homogenate was transferred into microfuge tubes, and the homogenizer vessel was rinsed with an additional 0.75 ml of HTAB in PBS. The wash was combined with the homogenate to yield a total sample volume of 1.5 ml, which was then centrifuged at 12,000 × g at 4°C for 15 minutes. For the MPO assay, 30 μl of the resulting supernatant was added to 96-well microtiter plates. To each well, 200 μl of a reaction mixture was added, consisting of 100 μl of 80 mM PBS (pH 5.4), 85 μl of 0.22 M PBS (pH 5.4), and 15 μl of 0.017% hydrogen peroxide. […] Enzyme activity was determined spectrophotometrically by measuring absorbance at 630 nm using a plate reader. Results were expressed as MPO activity per milligram of tissue (MOD/mg tissue). […] All samples were measured in six times (n = 6 technical replicates) for statistical accuracy.

[7] = Table 6 series 6a-h, read-out: HRBC membrane stabilization “IC50” Value
[8] = Table 7, 50-250 µg concentration series, comparison with indomethacin, read-out: “IC50”
[9] = Table 7, 50-250 µg concentration series, comparison with indomethacin

## Cc1ccc(OCC(=O)NNC(=O)C2CN(Cc3ccccc3)CCO2)c(C)c1 (centres unmarked) [6d, 4-Benzyl-N’-(2-(2,4-dimethylphenoxy)acetyl)morpholine-2-carbohydrazide]
[1]; [7]
  IC50: 199 µg/mL (≈ 501 µM)

## O=C(COc1ccc(Br)cc1)NNC(=O)C1CN(Cc2ccccc2)CCO1 (centres unmarked) [6b, 4-Benzyl-N’-(2-(4-bromophenoxy)acetyl)morpholine-2-carbohydrazide]
[1]; [7]
  IC50: 222 µg/mL (≈ 495 µM)

## Cc1ccccc1OCC(=O)NNC(=O)C1CN(Cc2ccccc2)CCO1 (centres unmarked) [6c, 4-Benzyl-N’-(2-(o-tolyloxy)acetyl)morpholine-2-carbohydrazide]
[1]; [7]
  IC50: 289 µg/mL (≈ 754 µM)

## O=C(CCCOc1ccc(F)cc1)NNC(=O)C1CN(Cc2ccccc2)CCO1 (centres unmarked) [6e, 4-Benzyl-N’-(4-(4-fluorophenoxy)butanoyl)morpholine-2-carbohydrazide]
[1]; 50 µg
  % Inhibition: 28.88%
[1]; 100 µg
  % Inhibition: 34.13%
[1]; 150 µg
  % Inhibition: 42.02%
[1]; 200 µg
  % Inhibition: 59.99%
[1]; 250 µg
  % Inhibition: 67.86%
[1]; [7]
  IC50: 155 µg/mL (≈ 373 µM)
[1]; [8]
  IC50: 164 µg/mL (≈ 395 µM)
[1]; [9]
  “IC50”: 165.988 µg/mL
[2]; 5 µg 6e + 1 µg rVEGF165, 48 h
  rVEGF165-induced angiogenic response / neovascularization, in vivo CAM: inhibited this rVEGF165-induced angiogenic response in a dose-dependent manner; also recorded: Marked suppression of neovascularization
[2]
  H&E staining: neovascular structures and inflammatory infiltration: minimal inflammatory infiltration and absence of neovessel
[2]; versus control, n = 6
  Total vessel length of in vivo CAM: A significant reduction in vessel length
[3]; co-administration with rVEGF165
  VEGF-induced angiogenic response, ex vivo CAM: Marked suppression of new blood vessel formation; also recorded: effectively inhibited this VEGF-induced angiogenic response in a dose-dependent manner
[3]; rVEGF165-induced increase, n = 6
  Total vessel length of ex-vivo CAM: significantly attenuated
[4]
  total vessel length in the rat cornea: diminution in the total vessel length; also recorded: reduction in total vessel length
[4]; rat, 6e 5 µg with rVEGF165 10 µg
  corneal neovascularization (CNV): significant decrease in CNV
[5]
  paw swelling ratio (percent increase of paw volume): statistically significant reduction in the paw swelling ratio; also recorded: significantly inhibited the ratio of paw swelling
[6]
  MPO activity in carrageenan-treated paws: markedly prevented the elevation of MPO activity

## O=C(CCCOc1ccc(Br)cc1)NNC(=O)C1CN(Cc2ccccc2)CCO1 (centres unmarked) [6g, 4-Benzyl-N’-(4-(4-bromophenoxy)butanoyl)morpholine-2-carbohydrazide]
[1]; [7]
  IC50: 279 µg/mL (≈ 586 µM)

## O=C(COc1ccc(Cl)cc1)NNC(=O)C1CN(Cc2ccccc2)CCO1 (centres unmarked) [6a, 4-Benzyl-N’-(2-(4-chlorophenoxy)acetyl)morpholine-2-carbohydrazide]
[1]; [7]
  IC50: 311 µg/mL (≈ 770 µM)

## CC(C)c1ccc(OCC(=O)NNC(=O)C2CN(Cc3ccccc3)CCO2)c(C(C)C)c1 (centres unmarked) [6f, 4-Benzyl-N’-(2-(2,4-diisopropylphenoxy)acetyl)morpholine-2-carbohydrazide]
[1]; [7]
  IC50: 301 µg/mL (≈ 664 µM)

## O=C(CCCOc1cccc([N+](=O)[O-])c1)NNC(=O)C1CN(Cc2ccccc2)CCO1 (centres unmarked) [6h, 4-Benzyl-N’-(4-(3-nitrophenoxy)butanoyl)morpholine-2-carbohydrazide]
[1]; [7]
  IC50: 255 µg/mL (≈ 576 µM)

## COc1ccc2c(c1)c(CC(=O)O)c(C)n2C(=O)c1ccc(Cl)cc1 [Indomethacin, reference compound]
[1]; 50 µg
  % Inhibition: 33.10%
[1]; 100 µg
  % Inhibition: 46.11%
[1]; 150 µg
  % Inhibition: 53.99%
[1]; 200 µg
  % Inhibition: 64.98%
[1]; 250 µg
  % Inhibition: 76.94%
[1]; [8]
  IC50: 122 µg/mL (≈ 340 µM)
[1]; [9]
  “IC50”: 122.01 µg/mL
[2]
  H&E staining: neovascular structures and inflammatory infiltration: Moderate reduction in neovascular structures
